We go through 35 compounds from patent US20220249447A1, “CF3-, OCF3-, SCF3-, and SF5-Containing Antibacterial Agents” (Purdue Research Foundation, priority 2019, published 2022).

One experiment concerns S. aureus. The experiment can be described thus: MIC, broth microdilution, S. aureus. In kind it is cell-based. The settings on record: Staphylococcus aureus. The procedure: (§1) Bacteria were cultured in cation-adjusted Mueller Hinton Broth (for strains in Tables 1-3) or Brain Heart Infusion broth (for Enterococcus faecium) or Tryptic Soy Broth (all other bacteria) in a 96-well plate at 37° C. for at least 20 hours. The MIC was classified as the lowest concentration where no visual growth of bacteria was observed. The minimum bactericidal concentration (MBC) was tested by spotting 4 μL from wells with no growth onto Tryptic Soy Agar (TSA) plates. Plates were incubated at 37° C. for at least 18 hours before recording the MBC.

A further experiment has as its system MRSA ATCC 33592. The experiment can be described thus: MIC, broth microdilution, MRSA ATCC 33592. In kind it is cell-based, methicillin-resistant S. aureus. The settings on record: Staphylococcus aureus. The protocol:
All MRSA isolates were acquired from BEI Resources. The remaining bacteria were purchased from the American Type Culture Collection (ATCC).
as §1

SMILES strings stand for the structures. ≈ marks a conversion by molar mass, not a printed value.

As for `O=C(Nc1nnc(-c2cccs2)o1)c1ccc(OC(F)F)cc1` [HSGN-143, 4-(difluoromethoxy)-N-(5-(thiophen-2-yl)-1,3,4-oxadiazol-2-yl)benzamide], the MIC against S. aureus and with MRSA ATCC 33592 was 32 µg/mL (≈ 94.9 µM) in each case.

In the case of `O=C(Nc1nnc(-c2cccs2)o1)c1ncc(C(F)(F)F)s1` [HSGN-168, N-(5-(thiophen-2-yl)-1,3,4-oxadiazol-2-yl)-5-(trifluoromethyl)thiazole-2-carboxamide], the results for the MIC against S. aureus and against MRSA ATCC 33592 were 16 µg/mL (≈ 46.2 µM) and 8 µg/mL (≈ 23.1 µM), respectively.

As to `O=C(Nc1nnc(-c2cccs2)o1)c1ccc(C(F)(F)F)o1` [HSGN-169, N-(5-(thiophen-2-yl)-1,3,4-oxadiazol-2-yl)-5-(trifluoromethyl)furan-2-carboxamide], the MIC against S. aureus and with MRSA ATCC 33592 was over 64 µg/mL throughout.

For the compound `O=C(Nc1nnc(-c2cccs2)o1)c1ccc(C(F)(F)F)s1` [HSGN-170], the MIC against S. aureus turned out to be 4 µg/mL (≈ 11.6 µM); with MRSA ATCC 33592, 2 µg/mL (≈ 5.79 µM).

Consider `O=C(Nc1nnc(-c2cccs2)o1)c1ccc(C(F)(F)F)nc1` [HSGN-171, N-(5-(thiophen-2-yl)-1,3,4-oxadiazol-2-yl)-6-(trifluoromethyl)nicotinamide], for which the results for the MIC in the experiment with S. aureus and with MRSA ATCC 33592 were 16 µg/mL (≈ 47 µM) and 8 µg/mL (≈ 23.5 µM), respectively.

`O=C(Nc1nnc(-c2cccs2)o1)c1ccc(C(F)(F)F)cn1` [HSGN-172, N-(5-(thiophen-2-yl)-1,3,4-oxadiazol-2-yl)-5-(trifluoromethyl)picolinamide]: the values for the MIC in the experiment with S. aureus and against MRSA ATCC 33592 were 64 µg/mL (≈ 188 µM) and 32 µg/mL (≈ 94 µM), respectively.

As to `O=C(Nc1nnc(-c2cccs2)o1)c1cc(C(F)(F)F)n[nH]1` [HSGN-183, N-(5-(thiophen-2-yl)-1,3,4-oxadiazol-2-yl)-3-(trifluoromethyl)-1H-pyrazole-5-carboxamide], the MIC against S. aureus and against MRSA ATCC 33592 was over 64 µg/mL each time.

As for `O=C(Nc1nnc(-c2cccs2)o1)c1cccc(C(F)(F)F)n1` [HSGN-184, N-(5-(thiophen-2-yl)-1,3,4-oxadiazol-2-yl)-6-(trifluoromethyl)picolinamide], the MIC in the experiment with S. aureus and with MRSA ATCC 33592 was 16 µg/mL (≈ 47 µM) each time.

For `O=C(Nc1nnc(-c2cccs2)o1)c1cnc(C(F)(F)F)nc1` [HSGN-190, N-(5-(thiophen-2-yl)-1,3,4-oxadiazol-2-yl)-2-(trifluoromethyl)pyrimidine-5-carboxamide], the MIC with S. aureus and in the experiment with MRSA ATCC 33592 was 32 µg/mL (≈ 93.8 µM) each time.

In the case of `O=C(Nc1nnc(-c2cccnc2)o1)c1ccc(SC(F)(F)F)cc1` [HSGN-206, N-(5-(pyridin-3-yl)-1,3,4-oxadiazol-2-yl)-4-((trifluoromethyl)thio)benzamide], the MIC against S. aureus and with MRSA ATCC 33592 was 32 µg/mL (≈ 87.4 µM) throughout.

For `COc1ccc(-c2nnc(NC(=O)c3ccc(SC(F)(F)F)cc3)o2)cc1` [HSGN-207, N-(5-(4-methoxyphenyl)-1,3,4-oxadiazol-2-yl)-4-((trifluoromethyl)thio)benzamide], the MIC with S. aureus came to 16 µg/mL (≈ 40.5 µM); in the experiment with MRSA ATCC 33592 it was 8 µg/mL (≈ 20.2 µM).

Consider `O=C(Nc1nnc(-c2ccc(C(F)(F)F)cc2)o1)c1ccc(OC(F)(F)F)cc1` [HSGN-220, 4-(trifluoromethoxy)-N-(5-(4-(trifluoromethyl)phenyl)-1,3,4-oxadiazol-2-yl)benzamide], for which the results for the MIC in the experiment with S. aureus and in the experiment with MRSA ATCC 33592 were 0.125 µg/mL (≈ 0.3 µM) and 0.25 µg/mL (≈ 0.599 µM), respectively.

Turning to `O=C(Nc1nnc(-c2cccs2)o1)c1ccc(SC(F)F)cc1` [HSGN-250, 4-((difluoromethyl)thio)-N-(5-(thiophen-2-yl)-1,3,4-oxadiazol-2-yl)benzamide], the MIC against S. aureus is 4 µg/mL (≈ 11.3 µM); in the experiment on MRSA ATCC 33592, 2 µg/mL (≈ 5.66 µM).

Turning to `CSc1ccc(C(=O)Nc2nnc(-c3cccs3)o2)cc1` [HSGN-251, 4-(methylthio)-N-(5-(thiophen-2-yl)-1,3,4-oxadiazol-2-yl)benzamide], the MIC in the experiment with S. aureus was found to be 16 µg/mL (≈ 50.4 µM); in the experiment with MRSA ATCC 33592, 8 µg/mL (≈ 25.2 µM).

In the case of `COc1ccc(Cl)cc1-c1nnc(NC(=O)c2ccc(SC(F)(F)F)cc2)o1` [HSGN-252, N-(5-(5-chloro-2-methoxyphenyl)-1,3,4-oxadiazol-2-yl)-4-((trifluoromethyl)thio)benzamide], the MIC in the experiment on S. aureus stood at 2 µg/mL (≈ 4.65 µM); in the experiment with MRSA ATCC 33592, 1 µg/mL (≈ 2.33 µM).

Consider `O=S(=O)(Nc1nnc(-c2cccc(Cl)c2)o1)c1ccc(S(F)(F)(F)(F)F)cc1` [HSGN-255, N-(5-(3-chlorophenyl)-1,3,4-oxadiazol-2-yl)-4-(pentafluoro-δ6-sulfaneyl)benzenesulfonamide], for which the MIC against S. aureus and with MRSA ATCC 33592 was over 64 µg/mL each time.

Regarding `O=S(=O)(Nc1nnc(-c2cccc(Cl)c2)o1)c1ccc(SC(F)(F)F)cc1` [HSGN-256, N-(5-(3-chlorophenyl)-1,3,4-oxadiazol-2-yl)-4-((trifluoromethyl)thio)benzenesulfonamide], the MIC in the experiment with S. aureus and in the experiment with MRSA ATCC 33592 was over 64 µg/mL each time.

With `O=C(Nc1noc(-c2ccc(C(F)(F)F)cc2)n1)c1ccc(SC(F)(F)F)cc1` [HSGN-257, N-(5-(4-(trifluoromethyl)phenyl)-1,2,4-oxadiazol-3-yl)-4-((trifluoromethyl)thio)benzamide], the MIC in the experiment on S. aureus and against MRSA ATCC 33592 was over 64 µg/mL throughout.

As to `Cc1ccc(-c2nnc(NC(=O)c3ccc(SC(F)(F)F)cc3)o2)s1` [HSGN-258, N-(5-(5-methylthiophen-2-yl)-1,3,4-oxadiazol-2-yl)-4-((trifluoromethyl)thio)benzamide], the minimum inhibitory concentration (MIC) against S. aureus and against MRSA ATCC 33592 was 2 µg/mL (≈ 5.19 µM) in each case.

With `FC(F)(F)Sc1ccc(-n2cc(-c3nnc(-c4cccc(Cl)c4)o3)nn2)cc1` [HSGN-260], the MIC in the experiment on S. aureus (20 h) and with MRSA ATCC 33592 (20 h) was over 64 µg/mL throughout.

As for `O=C(Nc1nnc(-c2cccc(Cl)c2)o1)c1ccc(OC(F)(F)F)c([N+](=O)[O-])c1` [HSGN-262, N-(5-(3-chlorophenyl)-1,3,4-oxadiazol-2-yl)-3-nitro-4-(trifluoromethoxy)benzamide], the MIC against S. aureus and in the experiment with MRSA ATCC 33592 was 16 µg/mL (≈ 37.3 µM) each time.

Consider `COc1cc(Cl)cc(-c2nnc(NC(=O)c3ccc(SC(F)(F)F)cc3)o2)c1` [HSGN-266, N-(5-(3-chloro-5-methoxyphenyl)-1,3,4-oxadiazol-2-yl)-4-((trifluoromethyl)thio)benzamide], for which the MIC with S. aureus and in the experiment on MRSA ATCC 33592 was 0.5 µg/mL (≈ 1.16 µM) each time.

In the case of `O=C(Nc1nnc(-c2ccccc2)o1)c1ccc(SC(F)(F)F)cc1` [HSGN-280, N-(5-phenyl-1,3,4-oxadiazol-2-yl)-4-((trifluoromethyl)thio)benzamide], the MIC in the experiment with S. aureus and against MRSA ATCC 33592 was 1 µg/mL (≈ 2.74 µM) each time.

`O=C(Nc1nnc(-c2ccc(F)cc2)o1)c1ccc(SC(F)(F)F)cc1` [HSGN-281, N-(5-(4-fluorophenyl)-1,3,4-oxadiazol-2-yl)-4-((trifluoromethyl)thio)benzamide]: the MIC with S. aureus and with MRSA ATCC 33592 was 0.0625 µg/mL (≈ 0.163 µM) in each case.

Consider `O=C(Nc1nnc(-c2ccc(Cl)cc2)o1)c1ccc(SC(F)(F)F)cc1` [HSGN-282, N-(5-(4-chlorophenyl)-1,3,4-oxadiazol-2-yl)-4-((trifluoromethyl)thio)benzamide], for which the MIC with S. aureus and in the experiment with MRSA ATCC 33592 was 0.0625 µg/mL (≈ 0.156 µM) each time.

Turning to `N#Cc1cccc(-c2nnc(NC(=O)c3ccc(SC(F)(F)F)cc3)o2)c1` [HSGN-283, N-(5-(3-cyanophenyl)-1,3,4-oxadiazol-2-yl)-4-((trifluoromethyl)thio)benzamide], the MIC against S. aureus and against MRSA ATCC 33592 was 0.0625 µg/mL (≈ 0.16 µM) in each case.

With `O=C(Nc1nnc(-c2cccc(Cl)c2)o1)c1cccc(SC(F)(F)F)c1` [HSGN-2111, N-(5-(3-chlorophenyl)-1,3,4-oxadiazol-2-yl)-3-((trifluoromethyl)thio)benzamide], the minimum inhibitory concentration (MIC) in the experiment with S. aureus and against MRSA ATCC 33592 was 1 µg/mL (≈ 2.5 µM) in each case.

In the case of `O=C(Nc1nnc(-c2cccc(Cl)c2)o1)c1cccc(S(F)(F)(F)(F)F)c1` [HSGN-2112, N-(5-(3-chlorophenyl)-1,3,4-oxadiazol-2-yl)-3-(pentafluoro-λ^6-sulfaneyl)benzamide], the MIC against S. aureus and against MRSA ATCC 33592 was 0.5 µg/mL (≈ 1.17 µM) throughout.

Turning to `O=C(Nc1nnc(-c2ccc(Cl)s2)o1)c1ccc(S(F)(F)(F)(F)F)cc1` [HSGN-2113, N-(5-(5-chlorothiophen-2-yl)-1,3,4-oxadiazol-2-yl)-4-(pentafluoro-λ^6-sulfaneyl)benzamide], the MIC in the experiment with S. aureus and in the experiment on MRSA ATCC 33592 was 0.25 µg/mL (≈ 0.579 µM) each time.

With `O=C(Nc1nnc(-c2ccccc2F)o1)c1ccc(SC(F)(F)F)cc1` [HSGN-2114, N-(5-(2-fluorophenyl)-1,3,4-oxadiazol-2-yl)-4-((trifluoromethyl)thio)benzamide], the MIC against S. aureus and in the experiment with MRSA ATCC 33592 was 0.5 µg/mL (≈ 1.3 µM) throughout.

For `O=C(Nc1nnc(-c2ccccc2Cl)o1)c1ccc(SC(F)(F)F)cc1` [HSGN-2115, N-(5-(2-chlorophenyl)-1,3,4-oxadiazol-2-yl)-4-((trifluoromethyl)thio)benzamide], the MIC in the experiment with S. aureus and against MRSA ATCC 33592 was 0.5 µg/mL (≈ 1.25 µM) in each case.

For `O=C(Nc1cnn(-c2ccccc2)c1)c1ccc(S(F)(F)(F)(F)F)cc1` [HSGN-2135, 4-(pentafluoro-λ^6-sulfaneyl)-N-(1-phenyl-1H-pyrazol-4-yl)benzamide], the MIC against S. aureus and with MRSA ATCC 33592 was over 128 µg/mL in each case.

As for `O=C(Nc1nnn(Cc2ccccc2)n1)c1ccc(S(F)(F)(F)(F)F)cc1` [HSGN-2136, N-(2-benzyl-2H-tetrazol-5-yl)-4-(pentafluoro-λ^6-sulfaneyl)benzamide], the MIC in the experiment on S. aureus and in the experiment on MRSA ATCC 33592 was over 128 µg/mL in each case.

`Cc1nnc(NC(=O)c2ccc(S(F)(F)(F)(F)F)cc2)o1` [HSGN-2140, N-(5-methyl-1,3,4-oxadiazol-2-yl)-4-(pentafluoro-λ^6-sulfaneyl)benzamide]: the MIC against S. aureus and against MRSA ATCC 33592 was 1 µg/mL (≈ 3.04 µM) in each case.

On to `O=C(Nc1nnc(C(F)(F)F)o1)c1ccc(S(F)(F)(F)(F)F)cc1` [HSGN-2141, 4-(pentafluoro-λ^6-sulfaneyl)-N-(5-(trifluoromethyl)-1,3,4-oxadiazol-2-yl)benzamide], for which the MIC against S. aureus and against MRSA ATCC 33592 was 32 µg/mL (≈ 83.5 µM) each time.
